Measured values from PMC4096996 (Structure (London, England : 1993), 2013).
Where “and” joins values, the source holds several entries; their conditions need not be identical. Equal values may be shown once. One block for each compound: values may come before it.

Tests used:
AvGluR1 LBD [1] = molecular target: T1, AvGluR1 LBD (Adineta vaga, UniProt E9P5T5, INS567GT); assay: biochemical; format: binding; conditions: for binding affinity: β-carbon branched amino acids
T1 sequence (E9P5T5 with tags, fused parts or gaps INS567GT): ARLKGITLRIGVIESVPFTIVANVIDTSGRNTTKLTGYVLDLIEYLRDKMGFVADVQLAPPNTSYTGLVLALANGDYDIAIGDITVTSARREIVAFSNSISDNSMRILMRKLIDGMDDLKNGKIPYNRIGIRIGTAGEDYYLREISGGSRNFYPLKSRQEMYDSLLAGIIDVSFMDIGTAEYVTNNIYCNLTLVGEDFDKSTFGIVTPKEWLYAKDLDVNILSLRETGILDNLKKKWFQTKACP

AvGluR1 [2] = conditions: prior studies; ref Janovjak et al., 2011; cited from earlier work
AvGluR1 [3] = format: cell-based, Adineta vaga; conditions: for time constant of onset of desensitization (Figure 2A traces): 2.8 mM alanine; for amplitude of response relative to glutamate: normalized to 60 μM glutamate in the same oocyte
GluR0 from Synechocystis = conditions: read-out: Kd for glutamate, ref Chen et al., 1999; cited from earlier work
AvGluR1 LBD [4] = molecular target: T1, AvGluR1 LBD; assay: Competitive displacement of [3H] L-glutamate with NaCl substituted by HEPES; format: binding
AvGluR1 LBD [5] = molecular target: T1, AvGluR1 LBD; assay: Saturation binding of [3H] L-glutamate to AvGluR1 LBD apo protein
AvGluR1 LBD [6] = molecular target: T1, AvGluR1 LBD; assay: Competitive displacement of 100 nM [3H] L-glutamate by 100 μM amino acids; format: binding; conditions: 100 μM competing amino acid
[7] = Kd, displacement of 100 nM [3H] L-Glu, NaCl buffer
[8] = Kd in Cl−, competitive displacement of [3H] L-glutamate, NaCl reaction buffer
[9] = ligand applied at 300 times the Kd
[10] = displacement of 100 nM [3H] L-Glu, NaCl buffer

Compound: N[C@@H](Cn1oc(=O)[nH]c1=O)C(=O)O [quisqualate]
Kd (AvGluR1 LBD [1]; [7]): 39 µM

Compound: N[C@@H](CCC(=O)O)C(=O)O [glutamate, L-glutamate]
activation of AvGluR1 (ligand activated ion currents) (AvGluR1 [2]): activation | Kd (AvGluR1 LBD [1]; [8]): 0.27 ± 0.02 µM | Kd (AvGluR1 LBD [1]; Kd, sequence of Kd values, Figure 1C and Table S1): 0.203 µM | 10-90% rise time (AvGluR1 [3]; 60 μM glutamate): 240 ± 67 ms | time constant of desensitization (single exponential) (AvGluR1 [3]; 60 μM glutamate): 626 ± 255 ms | time constant of onset of desensitization (Figure 2A traces) (AvGluR1 [3]; 60 μM glutamate): 1.25 s | inward current amplitude (AvGluR1 [3]; 60 μM glutamate, mean ± SD, n = 9): 5.1 ± 1.4 μA | time constant of recovery from desensitization (AvGluR1 [3]; 60 μM glutamate, twin pulse protocol): 26 s and 25.7 s | time constant of onset of desensitization (AvGluR1 [3]; 100 μM glutamate, wild type AvGluR1 control response (Figure 7D)): 460 ms | extent of desensitization (AvGluR1 [3]; [9]): complete desensitization | Kd (GluR0 from Synechocystis): 0.193 µM | Kd (AvGluR1 LBD [4]): 0.3 ± 0.04 µM | Kd (AvGluR1 LBD [5]): 0.203 ± 0.018 µM | effect on binding of 100 nM [3H] L-glutamate (AvGluR1 LBD [6]): abolished

Compound: N[C@@H](CS)C(=O)O [cysteine]
Kd (AvGluR1 LBD [1]; [7]): 46 µM | amplitude of response relative to glutamate (AvGluR1 [3]; [9]): 86 ± 8%

Compound: NC(=O)C[C@H](N)C(=O)O [asparagine]
Kd (AvGluR1 LBD [1]; [7]): 81 µM

Compound: C[C@H](C[C@H](N)C(=O)O)C(=O)O [SYM2081, 2S,4R-4-methyl glutamate]
fold lower affinity for AvGluR1 (AvGluR1 LBD [1]; comparator not given): 250 fold | Kd (AvGluR1 LBD [1]; [10]): 49.5 µM

effect on binding of 100 nM [3H] L-glutamate (AvGluR1 LBD [6]): abolished
Compound: N[C@@H](CC(=O)O)C(=O)O [aspartate]
activation of AvGluR1 (ligand activated ion currents) (AvGluR1 [2]): activation

Compound: C[C@H](N)C(=O)O [alanine]
time constant of onset of desensitization (Figure 2A traces) (AvGluR1 [3]; 60 μM glutamate): 1.0 s

Compound: Cc1cn(C[C@H](N)C(=O)O)c(=O)n(Cc2ccsc2C(=O)O)c1=O [UBP-310]
Kd (AvGluR1 LBD [1]; [10]): 160 µM

Compound: C=C(C)[C@H]1CN[C@H](C(=O)O)[C@H]1CC(=O)O [kainate]
activation of AvGluR1 (ligand activated ion currents) (AvGluR1 [2]): activation | Kd (AvGluR1 LBD [1]; [10]): 2700 µM

Compound: CC(C)[C@H](N)C(=O)O [valine]
binding affinity (AvGluR1 LBD [1]): low affinity

Compound: NC(=O)CC[C@H](N)C(=O)O [glutamine]
Kd (AvGluR1 LBD [1]; [7]): 37 µM

Compound: CN[C@H](CC(=O)O)C(=O)O [NMDA]
Kd (AvGluR1 LBD [1]; [10]): 9900 µM

Compound: N[C@@H](Cc1ccccc1)C(=O)O [phenylalanine]
amplitude of response relative to glutamate (AvGluR1 [3]; [9]): 33 ± 6%

Compound: CC[C@H](C)[C@H](N)C(=O)O [isoleucine]
binding affinity (AvGluR1 LBD [1]): low affinity

Compound: NC(CCCP(=O)(O)O)C(=O)O (stereo not shown) [AP5]
Kd (AvGluR1 LBD [1]; [10]): 530 µM

Compound: Cc1o[nH]c(=O)c1CC(N)C(=O)O (stereo not shown) [AMPA]
activation of AvGluR1 (ligand activated ion currents) (AvGluR1 [2]): activation | Kd (AvGluR1 LBD [1]; [10]): 130 µM

Compound: C[C@@H](O)[C@H](N)C(=O)O [threonine]
binding affinity (AvGluR1 LBD [1]): low affinity

Compound: CSCC[C@H](N)C(=O)O [methionine]
Kd (AvGluR1 LBD [1]; [8]): 15.1 ± 2.5 µM | Kd (AvGluR1 LBD [1]; [7]): 15 µM | amplitude of response relative to glutamate (AvGluR1 [3]; [9]): 64 ± 7% | Kd (AvGluR1 LBD [4]): 270 ± 52 µM

Compound: O=[N+]([O-])c1cc2nc(O)c(O)nc2cc1[N+](=O)[O-] [DNQX]
Kd (AvGluR1 LBD [1]; [10]): 250 µM

Compound: concanavalin A
effect on AvGluR1 desensitization (AvGluR1 [3]; 0.5 mg/ml for 4 minutes): strongly attenuated

Compound: N[C@H](CCC(=O)O)C(=O)O [D-Glu]
Kd (AvGluR1 LBD [1]; [10]): 130 µM

Compound: N[C@@H](CO)C(=O)O [serine]
activation of AvGluR1 (ligand activated ion currents) (AvGluR1 [2]): activation
